# From US10533006B2, “Nitrogen-containing heterocycle and carbocycle derivatives having TrkA inhibitory activity” (Shionogi & Co., Ltd., priority 2016, dated 2020)
# Molecular target: T1, human TrkA (Homo sapiens, UniProt P04629)
# T1 construct: purchased Lifetechnologies PV3144
# Experiment: Human TrkA inhibition assay
# Assay type: biochemical
# Conditions: human TrkA phosphorylation inhibition, ATP 500 μmol/L; read-out: IC50_nM
# Experimental: Seven point five L per well of human TrkA (PV3144, Lifetechnologies, final concentration: 1 nmol/L) suspended in the assay buffer (100 mmol/L 4-(2-hydroxyethyl)-1-piperazineethanesulfonic acid (HEPES), 10 mmol/L magnesium chloride, 0.003 vol % Brij-35, 0.004 vol % Tween20 and 1 mmol/L dithiothreitol (DTT)) was applied in a 384 well plate and the plate was pre-incubated for 15 min at room temperature with 0.4 μL of each compound (final concentration: 200 μmol/L-0.1 nM) dissolved in DMSO. Then, fluorescent substrate (FL-peptide 27, 760424, PerkinElmer, final concentration: 1.5 μmol/L) and ATP (final concentration 500 μmol/L) dissolved in the assay buffer was added in each well. After the incubation of 120 min at 37° C., fifteen μL of termination buffer (100 mmol/L HEPES, 40 mmol/L ethylenediaminetetraacetic acid (EDTA), 10 mmol/L magnesium chloride, 0.003 vol % Brij-35, 0.004 vol % Tween20, 1 mmol/L DTT and 0.16 vol % Coating Reagent 3) was added in each well to stop the enzyme reaction. Fluorescent intensities (FI) of phosphorylated and non-phosphorylated fluorescent substrates were measured by LabChip EZReader II (Caliper LifeSciences, Inc.), and conversion ratio (CR) was calculated by the following formula-1. The CR in the well applied with DMSO alone was used as a negative control and the CR in the well without applying TrkA was used as a positive control. The inhibitory effect of each compound on TrkA phosphorylation was calculated by the following formula-2. CR (%)=(FI of phosphorylated substrate/(FI of phosphorylated substrate+FI of non-phosphorylated substrate))×100 (Formula-1) Phosphorylation inhibition (%)=(1−(CR with compound treatment−CR of positive control)/(CR of negative control−CR of positive control))×100 (Formula-2)
# IC50 values (nmol/L) were determined by the logistic regression using the inhibition data in 10 points of 3-fold dilution series at a compound concentration range of 2 μmol/L to 0.1 nmol/L, or 15 points of 3-fold dilution series at the range of 200 μmol/L to 0.04 nmol/L.
# T1 sequence (P04629 33-796): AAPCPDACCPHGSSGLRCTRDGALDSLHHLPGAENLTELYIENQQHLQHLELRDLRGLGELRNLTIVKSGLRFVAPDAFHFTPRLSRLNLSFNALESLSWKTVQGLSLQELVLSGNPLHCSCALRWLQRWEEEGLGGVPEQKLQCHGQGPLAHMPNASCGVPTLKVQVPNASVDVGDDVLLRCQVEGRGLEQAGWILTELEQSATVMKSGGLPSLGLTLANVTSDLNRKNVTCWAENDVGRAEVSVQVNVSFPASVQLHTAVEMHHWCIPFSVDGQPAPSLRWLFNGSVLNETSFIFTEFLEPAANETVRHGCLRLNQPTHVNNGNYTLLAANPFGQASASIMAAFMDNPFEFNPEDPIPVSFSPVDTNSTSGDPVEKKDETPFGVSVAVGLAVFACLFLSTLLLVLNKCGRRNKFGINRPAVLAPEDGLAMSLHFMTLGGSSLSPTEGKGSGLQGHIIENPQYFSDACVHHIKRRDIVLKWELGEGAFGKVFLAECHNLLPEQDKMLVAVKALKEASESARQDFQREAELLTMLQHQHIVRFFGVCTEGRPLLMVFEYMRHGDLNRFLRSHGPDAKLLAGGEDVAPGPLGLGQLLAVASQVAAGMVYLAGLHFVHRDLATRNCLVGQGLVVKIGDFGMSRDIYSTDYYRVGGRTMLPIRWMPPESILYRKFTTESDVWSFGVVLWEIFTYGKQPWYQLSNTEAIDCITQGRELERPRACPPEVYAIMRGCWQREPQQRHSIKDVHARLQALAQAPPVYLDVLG
row,Compound,IC50
1,COCCN1C[C@@H](NC(=O)Nc2c(C)c(-c3ccnc(C(=O)NC4CC(F)(F)C4)c3)nn2-c2ccccc2)[C@H](c2ccccc2)C1 (racemic) [Compound I-70],< 100 nM
2,COCCN1C[C@@H](NC(=O)Nc2c(C)c(N3CCc4c(cnn4C)C3)nn2-c2ccccc2)[C@H](c2ccccc2)C1 [Compound I-58],< 100 nM
3,COCCN1C[C@@H](NC(=O)Nc2c(C)c(-c3cnc(OCC(F)F)c(C(=O)NC4CCOCC4)c3)nn2-c2ccccc2)[C@H](c2ccccc2)C1 (racemic) [Compound I-142],< 100 nM
4,CCNC(=O)c1cc(-c2nn(-c3ccccc3)c(NC(=O)N[C@@H]3CN(CCOC)C[C@H]3c3ccccc3)c2C)cn(C)c1=O (racemic) [Compound I-54],< 100 nM
5,COCCN1C[C@@H](NC(=O)Nc2c(C)c(-c3cnc4[nH]c(=O)oc4c3)nn2-c2ccccc2)[C@H](c2ccccc2)C1 (racemic) [Compound I-107],< 100 nM
6,COCC[C@@H]1C[C@@H](NC(=O)Nc2c(C)c(-c3cc(C)c(=O)n(C)c3)nn2-c2ccccc2)[C@H](c2ccccc2)C1 [Compound I-103],< 100 nM
7,Cc1c(-c2cnn(C)c2)nn(-c2ccccc2)c1NC(=O)N[C@@H]1CN(CCOC(F)(F)F)C[C@H]1c1ccnc(F)c1 (racemic) [Compound I-20],< 100 nM
8,COCCN1C[C@@H](NC(=O)Nc2c(C)c(-c3ccnc(C(=O)NC4CCS(=O)(=O)CC4)c3)nn2-c2ccccc2)[C@H](c2ccccc2)C1 (racemic) [Compound I-73],< 100 nM
9,COCCN1C[C@@H](NC(=O)Nc2c(C)c(-c3ccnc(C(=O)NC4COC4)c3)nn2-c2ccccc2)[C@H](c2ccccc2)C1 (racemic) [Compound I-69],< 100 nM
10,COCC[C@@H]1C[C@@H](NC(=O)Nc2c(C)c(-c3cnc4c(cnn4C)c3)nn2-c2ccccc2)[C@H](c2ccnc(F)c2)N1C [Compound I-94],< 100 nM
11,COCC[C@@H]1C[C@@H](NC(=O)Nc2c(C)c(-c3ccc(N=S(C)(C)=O)nc3)nn2-c2ccccc2)[C@H](c2ccccc2)C1 [Compound I-152],< 100 nM
12,CCN1CCC(NC(=O)c2ccc(-c3nn(-c4ccccc4)c(NC(=O)N[C@@H]4CN(CCOC)C[C@H]4c4ccccc4)c3C)cn2)CC1 (racemic) [Compound I-50],< 100 nM
13,CCNC(=O)c1cc(-c2nn(-c3ccccc3)c(NC(=O)N[C@@H]3CN(CCOC)C[C@H]3c3ccccc3)c2C)cnc1OC (racemic) [Compound I-55],< 100 nM
14,COCC[C@@H]1C[C@@H](NC(=O)Nc2c(C)c(-c3cnc4c(c3)nnn4C)nn2-c2ccccc2)[C@H](c2ccnc(F)c2)N1C [Compound I-171],< 100 nM
15,COCCN1C[C@@H](NC(=O)Nc2c(C)c(-c3cc(C(=O)NC[C@@H](C)O)c(=O)n(C)c3)nn2-c2ccccc2)[C@H](c2ccccc2)C1 (racemic) [Compound I-114],< 100 nM
16,COCCN1C[C@@H](NC(=O)Nc2c(C)c(-c3ccnc(C(=O)N[C@@H]4CCCOC4)c3)nn2-c2ccccc2)[C@H](c2ccccc2)C1 (mixture of isomers) [Compound I-72],< 100 nM
17,COCCN1C[C@@H](NC(=O)Nc2c(C)c(-c3ccnc(C(=O)NOC)c3)nn2-c2ccccc2)[C@H](c2ccc(F)c(F)c2)C1 [Compound I-156],< 100 nM
18,Cc1c(-c2cnn(C)c2)nn(-c2ccccc2)c1NC(=O)N[C@@H]1CN(Cc2ccccc2)C[C@H]1c1ccnc(F)c1 (racemic) [Compound I-18],> 1000 nM
19,COCCN1C[C@@H](NC(=O)Nc2c(C)c(-c3cc(C(=O)NC4CCS(=O)(=O)CC4)c(=O)n(C)c3)nn2-c2ccccc2)[C@H](c2ccccc2)C1 (racemic) [Compound I-110],< 100 nM
20,COCCN1C[C@@H](NC(=O)Nc2c(C)c(-c3cnc(OC)c(C(=O)NC4CS(=O)(=O)C4)c3)nn2-c2ccccc2)[C@H](c2ccccc2)C1 (racemic) [Compound I-101],< 100 nM
21,COCC[C@@H]1C[C@@H](NC(=O)Nc2c(C)c(-c3ccc(O)nc3)nn2-c2ccccc2)[C@H](c2ccc(F)c(F)c2)N1C [Compound I-14],< 100 nM
22,CCOC(=O)NC(=O)c1cc(-c2nn(-c3ccccc3)c(NC(=O)N[C@@H]3CN(CCOC)C[C@H]3c3ccccc3)c2C)cnc1OC (racemic) [Compound I-157],< 100 nM

row,Compound,IC50
1,COCC[C@@H]1C[C@@H](NC(=O)Nc2c(C)c(-c3cnc(OC)nc3)nn2-c2ccccc2)[C@H](c2ccnc(F)c2)C1 [Compound I-165],< 100 nM
2,COCC[C@@H]1C[C@@H](NC(=O)Nc2c3c(nn2-c2ccccc2)CCC3)[C@H](c2ccnc(F)c2)N1C [Compound I-177],< 100 nM
3,COCCN1C[C@@H](NC(=O)Nc2c(C)c(-c3ccnc(N=S(C)(C)=O)c3)nn2-c2ccccc2)[C@H](c2ccccc2)C1 (racemic) [Compound I-96],< 100 nM
4,COCCN1C[C@@H](NC(=O)Nc2c(C)c(-c3cnc4c(c3)c(=O)n(C)n4C)nn2-c2ccccc2)[C@H](c2ccccc2)C1 (racemic) [Compound I-99],< 100 nM
5,COCC[C@@H]1C[C@@H](NC(=O)Nc2c(C)c(-c3ccc(=O)[nH]c3)nn2-c2ccccc2)[C@H](c2ccccc2)C1 [Compound I-23],< 100 nM
6,CCNC(=O)c1cc(-c2nn(-c3ccccc3)c(NC(=O)N[C@@H]3CN(CCOC)C[C@H]3c3ccccc3)c2C)cnc1OCC (racemic) [Compound I-129],< 100 nM
7,CNS(=O)(=O)c1cc(-c2nn(-c3ccccc3)c(NC(=O)N[C@@H]3C[C@@H](CCOC)C[C@H]3c3ccccc3)c2C)cn(C)c1=O [Compound I-148],< 100 nM
8,COCC[C@@H]1C[C@@H](NC(=O)Nc2c(C)c(-c3ccc(OC)nc3)nn2-c2ccccc2)[C@H](c2ccnc(F)c2)N1C [Compound I-175],< 100 nM
9,COCCOc1ncc(-c2nn(-c3ccccc3)c(NC(=O)N[C@@H]3CN(CCOC)C[C@H]3c3ccccc3)c2C)cc1C(=O)NC1CCOCC1 (racemic) [Compound I-141],< 100 nM
10,CNC(=O)c1cc(-c2nn(-c3ccccc3)c(NC(=O)N[C@@H]3CN(CCOC)C[C@H]3c3ccccc3)c2C)cn(CCOC)c1=O (racemic) [Compound I-127],< 100 nM
11,COCCN1C[C@@H](NC(=O)Nc2c(C)c(-c3cnc4c(c3)c(C)nn4C)nn2-c2ccccc2)[C@H](c2ccnc(F)c2)C1 (racemic) [Compound I-104],< 100 nM
12,COCCN1C[C@@H](NC(=O)Nc2c(C)c(-c3ccnc(C(=O)N[C@H]4CCOC4)c3)nn2-c2ccccc2)[C@H](c2ccccc2)C1 [Compound I-87],< 100 nM
13,COCCN1C[C@@H](NC(=O)Nc2c(C)c(-c3cnn(C)c3)nn2-c2ccccc2)[C@H](c2ccnc(F)c2)C1 (racemic) [Compound I-2],< 100 nM
14,CNC(=O)c1cc(-c2nn(-c3ccccc3)c(NC(=O)N[C@@H]3CN(CCOC)C[C@H]3c3ccccc3)c2C)ccn1 (racemic) [Compound I-45],< 100 nM
15,COCCN1C[C@@H](NC(=O)Nc2c(C)c(-c3cnc4c(c3)nnn4C)nn2-c2ccccc2)[C@H](c2ccccc2)C1 (racemic) [Compound I-37],< 100 nM
16,COCCN1C[C@@H](NC(=O)Nc2c(C)c(N3CCc4nn(C)cc4C3)nn2-c2ccccc2)[C@H](c2ccccc2)C1 [Compound I-59],< 100 nM
17,CNC(=O)c1cc(-c2nn(-c3ccccc3)c(NC(=O)N[C@@H]3C[C@@H](CCOC)C[C@H]3c3ccccc3)c2C)cnc1OC [Compound I-144],< 100 nM
18,COCCN1C[C@@H](NC(=O)Nc2c(C)c(-c3cnc4ncnn4c3)nn2-c2ccccc2)[C@H](c2ccccc2)C1 (racemic) [Compound I-33],< 100 nM
19,COCCN1C[C@@H](NC(=O)Nc2c(C)c(-c3ccnc(C(=O)NC[C@H](C)O)c3)nn2-c2ccccc2)[C@H](c2ccccc2)C1 [Compound I-88],< 100 nM
20,COCCN1C[C@@H](NC(=O)Nc2c(C)c(-c3ccnc(C(=O)NO)c3)nn2-c2ccccc2)[C@H](c2ccc(F)c(F)c2)C1 [Compound I-155],< 100 nM
21,COCCN1C[C@@H](NC(=O)Nc2c(C)c(-c3cnn(C)c3)nn2-c2ccccc2)[C@H](c2cnc(Cl)s2)C1 (racemic) [Compound I-62],< 100 nM

# Same assay, conditions: human TrkA phosphorylation inhibition, ATP 500 μmol/L; read-out: IC50 value
row,Compound,IC50
1,COCCN1C[C@@H](NC(=O)Nc2c(C)c(-c3cc(C(=O)NC4CCOCC4)c(=O)n(C)c3)nn2-c2ccccc2)[C@H](c2ccccc2)C1 (racemic) [Compound I-56],0.98 nM
2,COCC[C@@H]1C[C@@H](NC(=O)Nc2c(C)c(-c3cnc4c(cnn4C)c3)nn2-c2ccccc2)[C@H](c2ccc(F)c(F)c2)N1C [Compound I-172],0.94 nM
3,COCCN1C[C@@H](NC(=O)Nc2c(C)c(-c3cnc4c(cnn4C)c3)nn2-c2ccccc2)[C@H](c2ccnc(F)c2)C1 (racemic) [Compound I-90],2.2 nM
4,COCCN1C[C@@H](NC(=O)Nc2c(C)c(-c3cnc4c(cnn4C)c3)nn2-c2ccccc2)[C@H](c2ccnc(F)c2)C1 [Compound I-159],1 nM
